Laboratory results as given in ChEMBL document CHEMBL1909046, “DrugMatrix in vitro pharmacology data”.

Legend:
[1] = target: T1, 5-hydroxytryptamine receptor 2C (Homo sapiens, UniProt P28335); test: DRUGMATRIX: Serotonin (5-Hydroxytryptamine) 5-HT2C radioligand binding (ligand: [3H] Mesulergine); type: cell membranes, CHO-K1, Membrane; conditions: Not Active = under 50% inhibition at 10 µM; for Ki: read-out: Ki
T1 sequence (P28335 whole entry): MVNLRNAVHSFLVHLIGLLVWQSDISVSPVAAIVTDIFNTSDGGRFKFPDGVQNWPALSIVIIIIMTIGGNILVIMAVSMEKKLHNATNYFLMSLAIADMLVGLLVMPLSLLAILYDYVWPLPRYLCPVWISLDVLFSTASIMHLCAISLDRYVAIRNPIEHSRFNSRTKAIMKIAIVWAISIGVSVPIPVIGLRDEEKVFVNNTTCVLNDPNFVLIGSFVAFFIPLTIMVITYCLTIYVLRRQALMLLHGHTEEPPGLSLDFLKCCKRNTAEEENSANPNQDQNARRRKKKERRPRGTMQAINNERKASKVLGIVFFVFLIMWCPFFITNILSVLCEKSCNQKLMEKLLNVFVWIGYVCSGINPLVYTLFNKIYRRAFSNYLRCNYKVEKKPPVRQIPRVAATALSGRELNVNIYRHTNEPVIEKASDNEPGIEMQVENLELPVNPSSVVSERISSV

Mu-type opioid receptor = Mu-type opioid receptor (Homo sapiens, UniProt P35372); test: DRUGMATRIX: Opiate mu (OP3, MOP) radioligand binding (ligand: [3H] Diprenorphine); type: cell membranes, CHO-K1, Membrane; conditions: cho-k1; Not Active = under 50% inhibition at 10 µM
Sequence of Mu-type opioid receptor (P35372 whole entry): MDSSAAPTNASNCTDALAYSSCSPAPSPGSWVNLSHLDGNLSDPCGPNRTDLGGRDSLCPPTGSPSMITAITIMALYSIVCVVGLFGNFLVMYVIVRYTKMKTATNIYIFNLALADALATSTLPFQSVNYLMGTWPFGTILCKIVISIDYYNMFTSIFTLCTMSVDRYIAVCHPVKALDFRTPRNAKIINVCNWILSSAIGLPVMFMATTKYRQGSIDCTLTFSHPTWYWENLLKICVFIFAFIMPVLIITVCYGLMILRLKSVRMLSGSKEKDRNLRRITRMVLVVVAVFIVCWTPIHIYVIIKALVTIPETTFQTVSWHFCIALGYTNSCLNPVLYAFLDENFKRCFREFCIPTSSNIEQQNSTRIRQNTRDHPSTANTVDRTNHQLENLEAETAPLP

SMILES	IC50 ([1]; cho-k1)	IC50 (Mu-type opioid receptor)	IC50 ([1]; read-out: IC50)	Ki [1]
CCCNC(C)C(=O)Nc1ccccc1C (configuration not stated) [PRILOCAINE]	Not Active	Not Active	–	–
NS(=O)(=O)c1cc(C2(O)NC(=O)c3ccccc32)ccc1Cl (configuration not stated) [CHLORTHALIDONE]	Not Active	Not Active	–	–
CN1CCC(=C2c3ccccc3CC(=O)c3sccc32)CC1 [KETOTIFEN]	–	Not Active	160 nM	84 nM
Cn1c(=O)c2c(ncn2C)n(C)c1=O [CAFFEINE]	Not Active	Not Active	–	–
NC(=O)c1cccnc1 [NIACINAMIDE]	Not Active	Not Active	–	–
CN(C)C(=O)Oc1cccc([N+](C)(C)C)c1.[Br-] [NEOSTIGMINE BROMIDE]	Not Active	Not Active	–	–
CCN(CC)CCNC(=O)c1ccc(N)cc1 [PROCAINAMIDE]	Not Active	Not Active	–	–
O=C(O)P(=O)(O)O [FOSCARNET]	Not Active	Not Active	–	–
C[C@H]1[C@H](NC(=O)/C(=N\OC(C)(C)C(=O)O)c2csc(N)n2)C(=O)N1S(=O)(=O)O [AZTREONAM]	Not Active	Not Active	–	–
CN1C[C@@H]2C[C@H]1CN2c1cc2c(cc1F)c(=O)c(C(=O)O)cn2C1CC1 [DANOFLOXACIN]	Not Active	Not Active	–	–
CN1CCCC(CN2c3ccccc3Sc3ccccc32)C1 (configuration not stated) [MEPAZINE]	–	Not Active	495 nM	259 nM
NCCCNCCSP(=O)(O)O [AMIFOSTINE]	Not Active	Not Active	–	–
CCn1cc(C(=O)O)c(=O)c2cc(F)c(N3CCNC(C)C3)c(F)c21 (configuration not stated) [LOMEFLOXACIN]	Not Active	Not Active	–	–
CN1CCN(c2c(F)cc3c(=O)c(C(=O)O)cn(CCF)c3c2F)CC1 [FLEROXACIN]	Not Active	Not Active	–	–
CC(C)(C(=O)O)c1ccc(C(O)CCCN2CCC(C(O)(c3ccccc3)c3ccccc3)CC2)cc1 (configuration not stated) [FEXOFENADINE]	Not Active	Not Active	–	–
C[C@H]1COc2c(N3CCN(C)CC3)c(F)cc3c(=O)c(C(=O)O)cn1c23.C[C@H]1COc2c(N3CCN(C)CC3)c(F)cc3c(=O)c(C(=O)O)cn1c23.O [LEVOFLOXACIN]	Not Active	Not Active	–	–
NC(=O)N1c2ccccc2CC(=O)c2ccccc21 [OXCARBAZEPINE]	Not Active	Not Active	–	–
O=C(O)CCNC(=O)c1ccc(/N=N/c2ccc(O)c(C(=O)O)c2)cc1 [BALSALAZIDE]	Not Active	Not Active	–	–
C[S+](C)[O-] [DIMETHYL SULFOXIDE]	Not Active	Not Active	–	–
COc1ccnc(C[S+]([O-])c2nc3ccc(OC(F)F)cc3[nH]2)c1OC (configuration not stated) [PANTOPRAZOLE]	Not Active	Not Active	–	–
CCc1ccc(CCOc2ccc(CC3SC(=O)NC3=O)cc2)nc1 (configuration not stated) [PIOGLITAZONE]	Not Active	Not Active	–	–
Cc1cccc(C)c1NC(=O)C1CCCCN1C (configuration not stated) [MEPIVACAINE]	Not Active	Not Active	–	–
CC1=NN(c2ccccc2)C(=O)C1 [EDARAVONE]	Not Active	Not Active	–	–
Cc1cc(O)cc(C)c1Cl [CHLOROXYLENOL]	Not Active	Not Active	–	–
CCN(C(C)=O)c1cccc(-c2ccnc3c(C#N)cnn23)c1 [ZALEPLON]	Not Active	Not Active	–	–
C[C@@H]1C/C=C/C=C/C=C/C=C/[C@H](O[C@@H]2O[C@H](C)[C@@H](O)[C@H](N)[C@@H]2O)C[C@@H]2O[C@](O)(C[C@@H](O)C[C@H]3O[C@@H]3/C=C/C(=O)O1)C[C@H](O)[C@H]2C(=O)O [NATAMYCIN]	Not Active	Not Active	–	–
NC12CC3CC(CC(C3)C1)C2 [AMANTADINE]	Not Active	Not Active	–	–
CC(C)c1c(C(=O)Nc2ccccc2)c(-c2ccccc2)c(-c2ccc(F)cc2)n1CC[C@@H](O)C[C@@H](O)CC(=O)O [ATORVASTATIN]	Not Active	Not Active	–	–
CN(C)CCC=C1c2ccccc2CCc2ccccc21 [AMITRIPTYLINE]	–	Not Active	6.05 nM	3.17 nM
C[C@]12CC[C@H]3[C@@H](CCC4=CC(=O)CC[C@@H]43)[C@@H]1CC[C@@H]2O [NANDROLONE]	Not Active	–	–	–
